From the supplement of paper PMC11451515

System: P12-Ichikawa
Experiment: cell viability relative to DMSO control; higher = less cytotoxic
Details: 48 h
Summary of the method: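 Before seeding, each leukemia line was adapted for at least four passages in each medium. NOMO1 or SEM cells (500 cells/well) and P12-Ichikawa cells (1000 cells/well) went into 1536-well plates at 5 μl, then received library compounds in DMSO by pin dosing across 11 threefold concentrations, 47 μM to 0.79 nM. Readout was CellTiter-Glo One luminescence after 48 h at 37°C, and viability is given as a per-plate percentage of DMSO wells, with cell-free wells as background.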

[1] = HPLM + 10% dialyzed FBS, 0.000781 µM
[2] = HPLM + 10% dialyzed FBS, 0.00234 µM
[3] = HPLM + 10% dialyzed FBS, 0.00702 µM
[4] = HPLM + 10% dialyzed FBS, 0.0211 µM
[5] = HPLM + 10% dialyzed FBS, 0.0632 µM
[6] = HPLM + 10% dialyzed FBS, 0.19 µM
[7] = HPLM + 10% dialyzed FBS, 0.569 µM
[8] = HPLM + 10% dialyzed FBS, 1.71 µM
[9] = HPLM + 10% dialyzed FBS, 5.12 µM
[10] = HPLM + 10% dialyzed FBS, 15.4 µM
[11] = HPLM + 10% dialyzed FBS, 46.1 µM
[12] = RPMI 5 mM glucose + 10% FBS, 0.000781 µM
[13] = RPMI 5 mM glucose + 10% FBS, 0.00234 µM
[14] = RPMI 5 mM glucose + 10% FBS, 0.00702 µM
[15] = RPMI 5 mM glucose + 10% FBS, 0.0211 µM
[16] = RPMI 5 mM glucose + 10% FBS, 0.0632 µM
[17] = RPMI 5 mM glucose + 10% FBS, 0.19 µM
[18] = RPMI 5 mM glucose + 10% FBS, 0.569 µM
[19] = RPMI 5 mM glucose + 10% FBS, 1.71 µM
[20] = RPMI 5 mM glucose + 10% FBS, 5.12 µM
[21] = RPMI 5 mM glucose + 10% FBS, 15.4 µM
[22] = RPMI 5 mM glucose + 10% FBS, 46.1 µM
[23] = RPMI 5 mM glucose + 10% dialyzed FBS, 0.000781 µM
[24] = RPMI 5 mM glucose + 10% dialyzed FBS, 0.00234 µM
[25] = RPMI 5 mM glucose + 10% dialyzed FBS, 0.00702 µM
[26] = RPMI 5 mM glucose + 10% dialyzed FBS, 0.0211 µM
[27] = RPMI 5 mM glucose + 10% dialyzed FBS, 0.0632 µM
[28] = RPMI 5 mM glucose + 10% dialyzed FBS, 0.19 µM
[29] = RPMI 5 mM glucose + 10% dialyzed FBS, 0.569 µM
[30] = RPMI 5 mM glucose + 10% dialyzed FBS, 1.71 µM
[31] = RPMI 5 mM glucose + 10% dialyzed FBS, 5.12 µM
[32] = RPMI 5 mM glucose + 10% dialyzed FBS, 15.4 µM
[33] = RPMI 5 mM glucose + 10% dialyzed FBS, 46.1 µM

Row | Structure (SMILES) | cell viability [1] [%] | cell viability [2] [%] | cell viability [3] [%] | cell viability [4] [%] | cell viability [5] [%] | cell viability [6] [%] | cell viability [7] [%] | cell viability [8] [%] | cell viability [9] [%] | cell viability [10] [%] | cell viability [11] [%] | cell viability [12] [%] | cell viability [13] [%] | cell viability [14] [%] | cell viability [15] [%] | cell viability [16] [%] | cell viability [17] [%] | cell viability [18] [%] | cell viability [19] [%] | cell viability [20] [%] | cell viability [21] [%] | cell viability [22] [%] | cell viability [23] [%] | cell viability [24] [%] | cell viability [25] [%] | cell viability [26] [%] | cell viability [27] [%] | cell viability [28] [%] | cell viability [29] [%] | cell viability [30] [%] | cell viability [31] [%] | cell viability [32] [%] | cell viability [33] [%]
1 | Clc1ccc(C2(c3ccc(-c4cn[nH]c4)cc3)CCNCC2)cc1 | 91.3 | 94.4 | 101 | 96.8 | 101 | 98 | 92.3 | 89.3 | 73.2 | 57.5 | 59.9 | 86.9 | 94.2 | 85.9 | 91 | 89 | 83.1 | 78.8 | 75.4 | 65.9 | 43.1 | 44.1 | 91 | 92.2 | 90.7 | 87.5 | 95 | 93.5 | 91.8 | 78.7 | 68.5 | 49.7 | 49.7
2 | COc1cc2c(N3CCN(C(=O)Nc4ccc(OC(C)C)cc4)CC3)ncnc2cc1OCCCN1CCCCC1 | 88.6 | 92.6 | 87.4 | 97.5 | 91.3 | 91.6 | 92.3 | 90 | 86 | 58 | 43.4 | 84.3 | 74.1 | 80 | 92.5 | 86.3 | 72.8 | 78.9 | 80.1 | 77.4 | 42.9 | 48.1 | 79.5 | 86.9 | 84.7 | 83 | 81.1 | 82.2 | 83.6 | 79 | 84.6 | 38.1 | 56
3 | CO/N=C(/C(=O)N[C@@H]1C(=O)N2C(C(=O)O)=C(Cn3ccc(=N)n3CCO)CS[C@H]12)c1csc(N)n1 | 121 | 123 | 125 | 136 | 135 | 126 | 134 | 126 | 141 | 137 | 125 | – | – | – | – | – | – | – | – | – | – | – | – | – | – | – | – | – | – | – | – | – | –
4 | Cc1ccc(-n2nc(C(C)(C)C)cc2NC(=O)Nc2ccc(OCCN3CCOCC3)c3ccccc23)cc1 | 106 | 112 | 113 | 115 | 111 | 117 | 119 | 126 | 114 | 109 | 102 | 106 | 107 | 103 | 97.7 | 113 | 112 | 113 | 117 | 112 | 88.7 | 85.2 | 105 | 100 | 112 | 121 | 109 | 116 | 125 | 126 | 116 | 97.5 | 104
5 | O=C1c2c(O)cccc2[C@H]([C@@H]2O[C@H](CO)[C@@H](O)[C@H](O)[C@H]2O)c2cc(CO)cc(O)c21 | 91 | 95.8 | 95.1 | 107 | 107 | 98.7 | 106 | 99.4 | 103 | 98.4 | 103 | 93.9 | 93.3 | 102 | 109 | 105 | 109 | 108 | 106 | 101 | 106 | 106 | 91 | 96.4 | 90.9 | 96.8 | 106 | 95.2 | 97 | 95.7 | 103 | 99.4 | 99
6 | COc1cc2nccc(Oc3ccc(NC(=O)Nc4cc(C)on4)c(Cl)c3)c2cc1OC | 121 | 131 | 115 | 122 | 122 | 115 | 126 | 119 | 107 | 113 | 40.5 | 124 | 121 | 114 | 129 | 118 | 124 | 120 | 122 | 110 | 106 | 36.7 | – | – | – | – | – | – | – | – | – | – | –
7 | COc1cc2nccc(Oc3ccc(NC(=O)Nc4ccc(F)cc4F)c(F)c3)c2cc1OC | 95.4 | 93.2 | 94.7 | 100 | 98.1 | 89.3 | 91.8 | 94.1 | 85 | 76.5 | 12.9 | 91.1 | 94.8 | 88.4 | 94.8 | 93.5 | 92.2 | 83.8 | 86 | 73.5 | 80.3 | 13.7 | 88 | 98.3 | 87.5 | 89.9 | 82.1 | 87.4 | 84.5 | 85.3 | 75 | 81.9 | 22.2
8 | O=C(NC1CCNCC1)c1n[nH]cc1NC(=O)c1c(Cl)cccc1Cl | 106 | 111 | 117 | 111 | 115 | 111 | 112 | 54.1 | 11.6 | 12.2 | 9.17 | 114 | 115 | 112 | 109 | 113 | 121 | 111 | 50.9 | 12.9 | 12.1 | 7.33 | 114 | 112 | 109 | 115 | 116 | 112 | 103 | 79.1 | 13.7 | 13.8 | 10.1
9 | COc1cc2c(Nc3ccc(NC(=O)c4ccccc4)cc3)ncnc2cc1OCCCN1CCOCC1 | 116 | 123 | 122 | 125 | 131 | 133 | 135 | 125 | 45 | 15 | 15.6 | – | – | – | – | – | – | – | – | – | – | – | – | – | – | – | – | – | – | – | – | – | –
10 | NC(=O)N1c2ccccc2CC(=O)c2ccccc21 | 115 | 116 | 121 | 125 | 124 | 138 | 129 | 128 | 132 | 127 | 134 | – | – | – | – | – | – | – | – | – | – | – | – | – | – | – | – | – | – | – | – | – | –
11 | C=C(C)[C@@H]1CC[C@]2(C)CC[C@]3(C)[C@H](CC[C@@H]4[C@@]5(C)CC[C@H](O)C(C)(C)[C@@H]5CC[C@]43C)[C@@H]12 | 108 | 115 | 116 | 113 | 127 | 134 | 128 | 125 | 126 | 126 | 124 | – | – | – | – | – | – | – | – | – | – | – | 104 | 119 | 102 | 115 | 130 | 110 | 128 | 126 | 124 | 119 | 126
12 | O=C(O)c1ccc2cc(-c3ccc(O)c(C45CC6CC(CC(C6)C4)C5)c3)ccc2c1 | 124 | 119 | 124 | 121 | 121 | 107 | 66.5 | 19.2 | 10.4 | 9.2 | 7.25 | 116 | 123 | 134 | 122 | 117 | 96.9 | 57.1 | 16 | 8.71 | 8.22 | 5.78 | – | – | – | – | – | – | – | – | – | – | –
13 | CC(C)(C)OC(=O)CN(Cc1ccc(Cl)cc1)Cc1ccc([N+](=O)[O-])s1 | 99.7 | 107 | 107 | 101 | 99 | 98.3 | 96.2 | 96.5 | 91.6 | 93 | 73.6 | 92.8 | 99.2 | 89 | 97.1 | 88.2 | 99.2 | 93.3 | 99.9 | 92.8 | 88.9 | 69.3 | 99 | 90.7 | 95.9 | 92 | 94.9 | 92 | 87.9 | 86.6 | 82.4 | 91.2 | 62.6
14 | Cc1nc(Nc2ncc(C(=O)Nc3c(C)cccc3Cl)s2)cc(N2CCN(CCO)CC2)n1 | 108 | 104 | 110 | 104 | 111 | 107 | 107 | 69.6 | 14.2 | 15.5 | 15 | 106 | 109 | 102 | 108 | 113 | 109 | 107 | 102 | 56.8 | 21.3 | 23.4 | 104 | 104 | 113 | 103 | 107 | 106 | 109 | 99.3 | 45.5 | 33.7 | 35.3
15 | CC(C)OC(=O)CCC/C=C\C[C@@H]1[C@@H](/C=C/[C@@H](O)COc2cccc(C(F)(F)F)c2)[C@H](O)C[C@@H]1O | 109 | 120 | 122 | 127 | 115 | 119 | 118 | 115 | 112 | 104 | 65.1 | – | – | – | – | – | – | – | – | – | – | – | 112 | 126 | 120 | 121 | 127 | 123 | 124 | 119 | 110 | 92.7 | 46.1
16 | FC(F)(F)c1ccc(Nc2nc3cc(Oc4ccnc(-c5ncc(C(F)(F)F)[nH]5)c4)ccc3[nH]2)cc1 | 118 | 111 | 115 | 120 | 122 | 115 | 117 | 123 | 118 | 112 | 71.3 | 119 | 119 | 127 | 123 | 130 | 122 | 127 | 137 | 130 | 111 | 67.8 | – | – | – | – | – | – | – | – | – | – | –
17 | CCNC(=O)C[C@@H]1\N=C(C2=CC=C(Cl)C=C2)/C3=C(C=CC(=C3)OC)[N]4C(=NN=C14)C | 106 | 115 | 106 | 114 | 105 | 103 | 92.1 | 83.5 | 78.2 | 50.1 | 17 | 114 | 111 | 127 | 106 | 105 | 111 | 101 | 84.7 | 76 | 56.2 | 37.8 | 115 | 118 | 115 | 117 | 106 | 106 | 95.7 | 84 | 75.8 | 60.4 | 35.9
18 | O=C(Nc1ccc(OC(F)(F)F)cc1)c1sccc1NCc1ccnc2ccccc12 | 112 | 113 | 108 | 116 | 106 | 112 | 41.4 | 12.8 | 10.7 | 8.54 | 7.05 | 106 | 121 | 118 | 120 | 118 | 113 | 102 | 72.6 | 25.9 | 10.3 | 9.62 | 109 | 119 | 111 | 120 | 108 | 103 | 110 | 73.5 | 33.1 | 16.6 | 16.1
